Values of other authors as cited in US20250248986A1, “ANTIFUNGAL DRUG INHALATION FORMULATIONS” (priority 2024, published 2025).
Where two headings read alike, the source gives them in different places.

water solubility (neutral conditions) | water solubility (pH 1) | solubility of the free base (pH of about 6.4 or higher) | SMILES
about 1 ng/ml | about 1 μg/ml | – | CCC(C)n1ncn(-c2ccc(N3CCN(c4ccc(OCC5COC(Cn6cncn6)(c6ccc(Cl)cc6Cl)O5)cc4)CC3)cc2)c1=O (racemic) [Itraconazole]
– | – | less than 1 μg/ml | CC[C@@H]([C@H](C)O)n1ncn(-c2ccc(N3CCN(c4ccc(OC[C@@H]5CO[C@@](Cn6cncn6)(c6ccc(F)cc6F)C5)cc4)CC3)cc2)c1=O [Posaconazole]
